Laboratory results published in patent US6605634B2 (Amgen, Inc., priority 1996, dated 2003).

System: production of tumor necrosis factor (TNF) by monocytes activated with bacterial lipopolysaccharide (LPS)
Assay: Lipopolysaccharide-activated Monocyte TNF Production Assay
Format: cell-based
Conditions: Homo sapiens, TNF in culture supernatants by ELISA, read-out: IC50 (concentration of test compounds causing a 50% reduction in TNF production)
Protocol: Lipopolysaccharide-activated Monocyte TNF Production Assay
Test compounds were evaluated in vitro for the ability to inhibit the production of tumor necrosis factor (TNF) by monocytes activated with bacterial lipopolysaccharide (LPS). Fresh residual source leukocytes (a byproduct of plateletpheresis) were obtained from the local blood bank and peripheral blood mononuclear cells (PBMCs) were isolated by density gradient centrifugation on Ficol-Paque Plus (Pharmacia). PBMCs were suspended at 2×10^6/ml in DMEM supplemented to contain 2% FCS (10 mM), 0.3 mg/ml glutamate, 100 U/ml penicillin G and […] streptomycin sulfate (complete media). Cells were plated into Falcon flatbottom 96 well culture plates (200 μl/well) and cultured overnight at 37° C. and 6% CO2. Nonadherent cells were removed by washing with 200 μl/well of fresh medium. Wells containing adherent cells (˜70% monocytes) were replenished with 100 μl of fresh medium.
Preparation of Test Compound Stock Solutions
Test compounds were dissolved in […]. Compound stock solutions were prepared to an initial concentration of […]. Stocks were diluted initially to 20-200 μM in complete media. Nine two-fold serial dilutions of each compound were then prepared in complete medium.
Treatment of Cells with Test Compounds and Activation of TNF Production with Lipopolysaccharide
One hundred microliters of each test compound dilution were added to microtiter wells containing adherent monocytes and 100 μl complete medium. Monocytes were cultured with test compounds for 60 min at which time 25 μl of complete medium containing 30 ng/ml lipopolysaccharide from E. coli K532 were added to each well. Cells were cultured an additional 4 hrs. Culture supernatants were then removed and TNF present in the supernatants was quantified using an ELISA.
Flat bottom 96 well Coming High Binding ELISA plates were coated overnight (4° C.) with 150 μL/well of 3 μg/ml murine anti-human TNFa MAb (R&D Systems #MAB210). Wells were then blocked 1 h at room temperature with 200 μL/well of CaCl2-free ELISA buffer supplemented to contain 20 mg/ml BSA (standard ELISA buffer: […], 150 mM NaCl, 2 mM CaCl2, 0.15 mM thimerosal, pH 7.4). Plates were washed and replenished with 100 μl of test supernatants (diluted 1:3) or standards. Standards consisted of eleven 1.5-fold serial dilutions from a stock of 1 ng/ml recombinant human TNF (R&D Systems). Plates were incubated at room temperature for 1 h on orbital shaker (300 rpm), washed and replenished with 100 μl/well of 0.5 jig/ml goat anti-human TNFa (R&D systems #AB-210-NA) biotinylated at a 4:1 ratio. Plates were incubate for 40 min, washed and replenished with 100 μl/well of alkaline phosphatase-conjugated streptavidin (Jackson ImmunoResearch #016-050-084) at 0.02 μg/ml. Plates were incubated 30 min, washed and replenished with 200 μl well of 1 mg/ml of p-nitrophenyl phosphate. After 30 min, plates were read at 405 nm on a Vmax plate reader.
Standard curve data were fit to a second order polynomial and unknown TNF-a concentrations determined from their OD by solving this equation for concentration. TNF concentrations were then plotted Vs test compound concentration using a second order polynomial. This equation was then used to calculate the concentration of test compounds causing a 50% reduction in TNF production.

| Compound | IC50 [µM] |
| --- | --- |
| C[S+]([O-])CC[C@H](NC(=O)OC(C)(C)C)C(=O)Nc1ccc2c(-c3ccncc3)c(-c3ccc(F)cc3)[nH]c2n1 (some centres unmarked) [Compound 108, 6-(4′-methylsulfoxo-1′-oxo-2′S-t-butoxycarbonylaminobutylamino)-3-(4-pyridyl)-2-(4-fluorophenyl)-7-aza-indole] | < 20 |
| CC(C)(C)OC(=O)N[C@@H](Cc1cccnc1)C(=O)Nc1ccc2c(-c3ccncc3)c(-c3ccc(F)cc3)[nH]c2n1 [Compound 110, 6-(3′-(3-pyridyl)-1′-oxo-2′S-t-butoxycarbonylaminopropylamino)-3-(4-pyridyl)-2-(4-fluorophenyl)-7-aza-indole] | < 20 |
| N[C@@H](Cc1cccs1)C(=O)Nc1ccc2c(-c3ccncc3)c(-c3ccc(F)cc3)[nH]c2n1 [Compound 133, 6-(3′-(2-thienyl)-1′-oxo-2′-(L)-aminopropylamino)-3-(4-pyridyl)-2-(4-fluorophenyl)-7-aza-indole] | < 20 |
| N[C@@H](CC1CCCCC1)C(=O)Nc1ccc2c(-c3ccncc3)c(-c3ccc(F)cc3)[nH]c2n1 [Compound 81, 6-(3′-cyclohexyl-1′-oxo-2′-aminopropylamino)-3-(4-pyridyl)-2-(4-fluorophenyl)-7-aza-indole] | < 20 |
| NCCCCCC(=O)Nc1ccc2c(-c3ccncc3)c(-c3ccc(F)cc3)[nH]c2n1 [Compound 79, 6-(6′-amino-1′-oxo-hexylamino)-3-(4-pyridyl)-2-(4-fluorophenyl)-7-aza-indole] | < 20 |
| CC(C)(C)OC(=O)NCCC[C@H](NC(=O)OC(C)(C)C)C(=O)Nc1ccc2c(-c3ccncc3)c(-c3ccc(F)cc3)[nH]c2n1 [Compound 68, 6-(5′-t-butoxycarbonylamino-1′-oxo-2′-t-butoxycarbonylaminopentylamino)-3-(4-pyridyl)-2-(4-fluorophenyl)-7-aza-indole] | < 20 |
| CN(C)CC(=O)Nc1ccc2c(-c3ccncc3)c(-c3ccc(F)cc3)[nH]c2n1 [Compound 103, 6-(2′-Dimethylamino-1′-oxo-ethylamino)-3-(4-pyridyl)-2-(4-fluorophenyl)-7-aza-indole] | < 20 |
| C[C@@H](C(=O)Nc1ccc2c(-c3ccncc3)c(-c3ccc(F)cc3)[nH]c2n1)N(C)C [Compound 102, 6-(2S′-dimethylamino-1′-oxo-propylamino)-3-(4-pyridyl)-2-(4-fluorophenyl)-7-aza-indole] | < 1 |
| O=C(Nc1ccc2c(-c3ccncc3)c(-c3ccc(F)cc3)[nH]c2n1)C1CCNCC1 [Compound 107, 6-(4′-isonipecotylamino)-3-(4-pyridyl)-2-(4-fluorophenyl)-7-aza-indole] | < 1 |
| N[C@H](C(=O)Nc1ccc2c(-c3ccncc3)c(-c3ccc(F)cc3)[nH]c2n1)c1ccccc1 [Compound 119, 6-(2′-phenyl-1′-oxo-2′S-aminoethylamino)-3-(4-pyridyl)-2-(4-fluorophenyl)-7-aza-indole] | < 1 |
| CC(C)(C)OC(=O)N1CCC(C(=O)Nc2ccc3c(-c4ccncc4)c(-c4ccc(F)cc4)[nH]c3n2)CC1 [Compound 106, 6-(4′-N-t-butoxycarbonylisonipecotylamino)-3-(4-pyridyl)-2-(4-fluorophenyl)-7-aza-indole] | < 1 |
| O=C(CCN1C(=O)c2ccccc2C1=O)Nc1ccc2c(-c3ccncc3)c(-c3ccc(F)cc3)[nH]c2n1 [Compound 98, 6-(3′-N-phthaloyl-1′-oxo-propylamino)-3-(4-pyridyl)-2-(4-fluorophenyl)-7-aza-indole] | < 20 |
| NC(Cc1ccccc1)C(=O)Nc1ccc2c(-c3ccncc3)c(-c3ccc(F)cc3)[nH]c2n1 (racemic) [Compound 87, 6-(3′-phenyl-1′-oxo-2′-D,L-aminopropylamino)-3-(4-pyridyl)-2-(4-fluorophenyl)-7-aza-indole] | < 20 |
| CC(CNc1ccc2c(-c3ccncc3)c(-c3ccc(F)cc3)[nH]c2n1)c1ccccc1 (racemic) [Compound 147, 6-(2′(R,S)-phenylpropylamino)-3-(4-pyridyl)-2-(4-fluorophenyl)-7-aza-indole] | < 20 |
| CN[C@@H](C(=O)Nc1ccc2c(-c3ccncc3)c(-c3ccc(F)cc3)[nH]c2n1)c1ccccc1 [Compound 121, 6-(2′-phenyl-1′-oxo-2′R-N-methylaminoethylamino)-3-(4-pyridyl)-2-(4-fluorophenyl)-7-aza-indole] | < 1 |
| Cn1c(-c2ccc(F)cc2)c(-c2ccncc2)c2ccc(NC(=O)CN)nc21 [Compound 158, 6(2′-amino-1′-oxo-ethylamino)-3-(4-pyridyl)-2-(4-fluorophenyl)-1-methyl-7-aza-indole] | < 20 |
| CC(=O)Nc1ccc2c(-c3ccncc3)c(-c3ccc(F)cc3)[nH]c2n1 [Compound 94, 6-(1′-oxo-ethylamino)-3-(4-pyridyl)-2-(4-fluorophenyl)-7-aza-indole] | < 20 |
| CC(C)(C)C[C@H](N)C(=O)Nc1ccc2c(-c3ccncc3)c(-c3ccc(F)cc3)[nH]c2n1 [Compound 75, 6-(4′,4′-Dimethyl-1′-oxo-2′-aminopentylamino)-3-(4-pyridyl)-2-(4-fluorophenyl)-7-aza-indole] | < 20 |
| CC(C)CCNc1ccc2c(-c3ccncc3)c(-c3ccc(F)cc3)[nH]c2n1 [Compound 152, 6-(isoamylamino)-3-(4-pyridyl)-2-(4-fluorophenyl)-7-aza-indole] | < 20 |
| CC(C)COC(=O)n1c(-c2ccc(F)cc2)c(-c2ccncc2)c2ccc(NC(=O)CN)nc21 [Compound 143, 6-(2′-amino-1′-oxo-ethylamino)-3-(4-pyridyl)-2-(4-fluorophenyl)-1-isobutoxycarbonyl-7-aza-indole] | < 20 |
| N[C@@H](Cc1ccc(O)cc1)C(=O)Nc1ccc2c(-c3ccncc3)c(-c3ccc(F)cc3)[nH]c2n1 [Compound 89, 6-(3′-(4-hydroxyphenyl)-1′-oxo-2′-aminopropylamino)-3-(4-pyridyl)-2-(4-fluorophenyl)-7-aza-indole] | < 1 |
| CC(O)[C@H](N)C(=O)Nc1ccc2c(-c3ccncc3)c(-c3ccc(F)cc3)[nH]c2n1 (some centres unmarked) [Compound 85, 6-(3′-hydroxy-1′-oxo-2′-aminobutylamino)-3-(4-pyridyl)-2-(4-fluorophenyl)-7-aza-indole] | < 20 |
| CC(C)(C)OC(=O)N1CCC[C@H]1C(=O)Nc1ccc2c(-c3ccncc3)c(-c3ccc(F)cc3)[nH]c2n1 [Compound 100, 6-(2′-N-t-Butoxycarbonyl-L-prolylamino)-3-(4-pyridyl)-2-(4-fluorophenyl)-7-aza-indole] | < 20 |
